Assay results: paper PMC8507746, “The FHP01 DDX3X Helicase Inhibitor Exerts Potent Anti-Tumor Activity In Vivo in Breast Cancer Pre-Clinical Models” (Cancers, 2021)
Several values for one entry are separate records, joined by “and”; a condition that tells them apart may be missing. Equal values may be shown once.

Columns and labels:
MDA MB 231 cells = test: Cell viability / cytotoxicity assay (cell counting); assay type: cell-based; details: Homo sapiens
Procedure: (§1) Cells were seeded at 3–5 × 10^4 cells/well density (depending on cell lines) in 12-well plates, in triplicate, and maintained at 37 °C in 5% CO2. After 24 h, cells were treated with different concentrations of indicated drugs in a range from 0 to 100 μM (0, 0.1, 1, 10, 50, 100 μM). […] Cell number of each sample was determined with Z2 Coulter Counter (Beckman Coulter, Brea, CA, USA), in triplicate. Data about cell viability were plotted in GraphPad Prism 8.0 software (GraphPad Software, San Diego, CA, USA) to draw dose-response curve and to calculate IC50.

MDA MB 468 cells = test: as above; assay type: cell-based; details: Homo sapiens
Procedure: as §1

[1] = as above; assay type: cell-based; details: human, MCF10A control cells
Procedure: (§2) Cells were seeded at 3–5 × 10^4 cells/well density (depending on cell lines) in 12-well plates, in triplicate, and maintained at 37 °C in 5% CO2. After 24 h, cells were treated with different concentrations of indicated drugs in a range from 0 to 100 μM (0, 0.1, 1, 10, 50, 100 μM). After 72 h incubation, cells were washed in PBS and harvested. Cell number of each sample was determined with Z2 Coulter Counter (Beckman Coulter, Brea, CA, USA), in triplicate. Data about cell viability were plotted in GraphPad Prism 8.0 software (GraphPad Software, San Diego, CA, USA) to draw dose-response curve and to calculate IC50.

MCF7 cells = test: as above; assay type: cell-based; details: Homo sapiens, MCF7, 72 h
Procedure: as §2

SKBR3 cells = test: as above; assay type: cell-based; details: Homo sapiens, SK-BR-3; SKBR3, 72 h
Procedure: as §2

T47D cells = test: as above; assay type: cell-based; details: Homo sapiens, 72 h
Procedure: as §2

β-catenin = test: Western blot of β-catenin protein levels in MDA MB 231 cells; assay type: cell-based, human; details: MDA MB 231, 6 μM, 48 to 72 h
Procedure: (§3) Cells (1 × 10^5) were seeded in 6-well plates. After 24 h, cells were treated for indicated times with DMSO (vehicle) or FHP01 or XAV939 (Merck). After treatments, cells were washed with cold PBS and total protein extracts obtained by adding 80 µL of “RIPA Lysis buffer” (50 mM Tris-HCl pH 8.0, 150 mM NaCl, 0.5% Sodium deoxycholate, 0.1% SDS, 1% NP-40, 2 mM Orthovanadate, 2mM Sodium fluoride, 1mM Dithiothreitol and 1× protease inhibitors). After mechanicals detachment with cell scrapers, total lysates were collected in tubes, vortexed, and incubated for 15 min on ice. Tumors from mice were collected and disrupted by bead homogenization in Lysing Matrix D tubes using a FastPrep-24 5G homogenizer (MP Biomedicals, Solon, OH, USA) filled with “RIPA Lysis buffer” w:v. Next, samples were centrifuged for 10 min at 16,000× g, and supernatants were collected, representing total cell lysates.
(§4) Densitometric analysis of western blots was performed with NIH Image J (National Institutes of Health).

[2] = tested on: WNT signaling (TCF/LEF transcriptional activity); test: TCF/LEF luciferase reporter assay (WNT1/WNT3A) in MDA MB 231 cells; assay type: cell-based, human; details: MDA MB 231, 6 μM, 48 h
Procedure: MDA MB 231 cells were seeded at 3 × 10^4 cells/well density in 12-well plates, in triplicate, and transfected with 250 ng of the M50 Super 8× TOPFlash reporter vector (Addgene Plasmid #12456) and 1 μg of expression vectors inducing the WNT pathway (Wnt1-V5, Addgene plasmid #43807, and Wnt3A-V5, Addgene plasmid #43810). Eight hours after transfection, cells were treated with FHP01, XAV939 (Merck, Kenilworth, NJ, USA) or DMSO for indicated times prior to lysis in Passive Lysis Buffer (Promega, Madison, WI, USA). Luciferase activity in cellular lysates was assessed on a Glomax 20/20 luminometer (Promega) using the Luciferase Assay System (Promega). Results were normalized for GFP expression, upon transfection with GFP coding vector (1 μg). Representative results from 3 independent experiments are shown (n = 3). Error bars represent the Standard Error of the Mean. All samples were read at least in triplicate.

[3] = Tolerability in xenograft study: body weight and organ histology; assay type: in vivo, athymic nude mice
Procedure: Animal experiments were performed in accordance with current Italian legislation and the animal protocol has been reviewed and approved by Italian Ministero della Salute (authorization n. 886/2020-PR). The study was designed to verify the effect of newly synthetized molecule with DDX3X inhibitor activity administered via i.p at a concentration of 45 mg/kg on the tumor growth of xenograft MDA MB 231 human breast cancer cells. In the study, n refers to the number of tumors expressed on both flanks of the animals. The sample size was calculated by g-power calculator placing a predictable large (2-fold increase) effect size, alpha as 0.05, and a confidence interval of 95% and we set our experimental unit number of 10 (corresponding to 5 animals). Total number of animals used in the study was 10. Six-week-old athymic nude mice were purchased from Charles River Laboratories. Five animals in each cage acclimatized in our animal facilities for 5 days in individually ventilated cages. Animals were fed with the lab diet ad libitum and water was accessible at all times and kept under standard specific pathogen-free conditions of 12 h light/dark cycle. Observational analysis was performed at the beginning of experimental procedure to ensure animal wellbeing (Table S1). […]

[4] = tested on: DDX3X and β-catenin in MDA MB 231 tumors; test: Western blot of DDX3X and β-catenin in tumors from treated mice; assay type: in vivo, athymic nude mice; details: 45 mg/kg i.p. three times per week for 4 weeks, individual tumors
Procedure: as §3, §4

For `CCCCc1cn(-c2ccc(NC(=O)Nc3ccccc3C(F)(F)F)cc2)nn1` [FHP01], which IC50 (MDA MB 231 cells; MDA MB 231, 24h) is on record?
Its IC50 is 13.3 µM.

And the IC50 (MDA MB 231 cells; MDA MB 231, 48h)?
Its IC50 is 4.14 µM.

And the IC50 (MDA MB 231 cells; MDA MB 231, 72 h)?
Its IC50 is 3.21 µM.

And the IC50 (MDA MB 468 cells; MDA MB 468, 24h)?
Its IC50 is 12.7 µM.

And the IC50 (MDA MB 468 cells; MDA MB 468, 48h)?
The IC50 was 3.48 µM.

And the IC50 (MDA MB 468 cells; MDA MB 468, 72 h)?
Its IC50 is 3.06 µM.

What about the IC50 at 72 h [1] of the same compound?
The IC50 at 72 h was 28.7 µM.

What about the IC50 (MCF7 cells) of the same compound?
The IC50 was 12.4 µM.

And the IC50 (SKBR3 cells)?
Its IC50 is 13.5 µM.

What about the IC50 (T47D cells) of the same compound?
Its IC50 is 10.6 µM.

And the β-catenin protein levels (β-catenin)?
Its β-catenin protein levels is “time-dependent reduction”.

What about the “WNT1- and WNT3A-dependent TCF/LEF transcriptional activity” value [2] of the same compound?
Its value is “strong inhibition”.

What about the animal body weight ([3]; 45 mg/kg i.p. 3 times a week, all the treatment period) of the same compound?
Its animal body weight is “No loss of animal body weight”.

What about the “histology of liver, brain, spleen and kidney” value ([3]; after 4 weeks of i.p. treatment, 45 mg/kg) of the same compound?
The value was “did not show any sign of toxicity”.

What about the “DDX3X : ERK2 in tumors” value ([4]; Ctrl 0.64, 1.00, 0.60) of the same compound?
Its value is 0.01 (2×) and 0.13.

What about the “β-Catenin : ERK2 in tumors” value ([4]; Ctrl 0.64, 1.00, 0.89) of the same compound?
The value was 0.64 and 0.79 and 0.70.
